In ChEMBL document CHEMBL5303711, “ECBD screening data for assay EOS300108” (2023):
Where a name gives a salt, the structure may show the parent alone. Calls of active or inactive are those of the source. How the calls were made is not given here. Residues, ends and D or L forms follow the SMILES beside them. *: point of attachment. Cbz = O=C(OCc1ccccc1)*

Assay: Cytotoxicity activity against human HepG2 cells assessed by CellTiter-Glo luminescent cell viability assay.
Type: toxicity, cell-based
Design: assay stage confirmatory assay, source tissue liver
Details: HepG2 cells, read-out: IC50 relative

Row | Compound | CC50
1 | CNCCC(Oc1ccc(C(F)(F)F)cc1)c1ccccc1 (stereo not drawn) [FLUOXETINE HYDROCHLORIDE] | 6.6 µM (active)
2 | Nc1nc(NC[C@H]2CC[C@H](CNS(=O)(=O)c3cccc4ccccc34)CC2)nc2ccccc12 | 2 µM (active)
3 | CC(C)c1cc(-c2n[nH]c(=O)n2-c2ccc3c(ccn3C)c2)c(O)cc1O [GANETESPIB] | < 0.1 µM (active)
4 | c1ccc([C@H](CC2CCC2)NC2CCC3(CC2)OCCO3)cc1 | 4 µM (active)
5 | COc1ccc(OC)c([N+]2=C3SCCCN3C(O)(c3ccc(C)cc3)C2)c1 (stereo not drawn) | 11.6 µM (active)
6 | Cc1cc(N2CCOCC2)cc2[nH]c(-c3c(NC[C@@H](O)c4cccc(Cl)c4)cc[nH]c3=O)nc12 | 2.3 µM (active)
7 | CC1(C)C=Cc2c(ccc3c2OC[C@@H](c2ccc(O)cc2O)C3)O1 [GLABRIDIN] | 12.8 µM (active)
8 | O=C(Nc1nc(-c2ccco2)cs1)c1cccnc1N1CCOCC1 | 1.6 µM (active)
9 | CC(C)CCn1c(SCC(=O)NCCN(C(C)C)C(C)C)nc2ccccc2c1=O | 12.5 µM (active)
10 | Cc1ncc(NC(=O)c2ccc(CN3CCN(C)CC3)c(C(F)(F)F)c2)cc1Nc1nccc(-c2cccnc2)n1 [FLUMATINIB] | 3.3 µM (active)
11 | Cc1cccc2nc(C(=O)Nc3ccc4c(c3)OC3(CCCC3)O4)cn12 | 11.9 µM (active)
12 | c1nc(N2CCN(Cc3ccc4c(c3)OCO4)CC2)c2ccsc2n1 | 5.1 µM (active)
13 | Clc1ccc(COC(Cn2ccnc2)c2ccc(Cl)cc2Cl)c(Cl)c1 (stereo not drawn) [MICONAZOLE NITRATE] | 12 µM (active)
14 | O=C(CN1C(=O)COc2ccc(S(=O)(=O)N3CCCCCC3)cc21)NCc1ccccc1 | 50 µM (inactive)
15 | CCOc1ccc(OCC)c(NC(=O)c2ccc(N3CCN(C(C)C)CC3)cc2)c1 | 9.8 µM (active)
16 | Nc1nc(NCCNc2ncc(-n3ccnc3)c(-c3ccc(Cl)cc3Cl)n2)ccc1[N+](=O)[O-] | 50 µM (inactive)
17 | CCOc1cc(C)c(CN2C[C@@H](CN(C)C)C[C@H](CO)C2)cc1C(C)C | 4.1 µM (active)
18 | O=c1[nH]c2ccccc2n1C1CCN(c2nccc(-c3cccnc3)n2)CC1 | 11.2 µM (active)
19 | CCc1oc2ccccc2c1CN(C)C(=O)C1(C)CCN(C)CC1 | 12 µM (active)
20 | COc1ccc2cc3[n+](cc2c1OC)CCc1cc2c(cc1-3)OCO2 [BERBERINE CHLORIDE] | 14.4 µM (inactive)
21 | O=C(Nc1cccc2cccnc12)c1cn2ccccc2n1 | < 0.1 µM (active)
22 | CCOC(=O)C1CCCN(C(=O)C(=O)c2c[nH]c3ccccc23)C1 (stereo not drawn) | 9.8 µM (active)

Row | Compound | CC50
23 | Cc1ccc(Nc2ncc3c(n2)N(C)C(=O)N(c2cc(NC(=O)c4cccc(C(F)(F)F)c4)ccc2C)C3)cn1 | 0.1 µM (active)
24 | O=C(NCCCN1CCC2(CC1)OCc1ccccc12)[C@H]1CCCN1Cc1ccccc1 | 10.7 µM (active)
25 | O=C(NCCN1CCC(n2c(=O)[nH]c3ccccc32)CC1)c1cc2cc(F)ccc2[nH]1 | 6.4 µM (active)
26 | COc1ccc(NC(=O)C2=C(c3ccccc3)S(=O)(=O)CCO2)c(OC)c1 | 9.7 µM (active)
27 | COc1cccc(-c2ccc(=O)n(CC(=O)Nc3ccccn3)n2)c1 | 6.8 µM (active)
28 | CC(C)N1CC(CN)C2(CCCCC2)C1 (stereo not drawn) | 11.6 µM (active)
29 | CC(C)(C)c1cc(NC(=O)Nc2ccc(Oc3ccnc4[nH]c(=O)cnc34)cc2F)n(-c2ccccc2)n1 | 0.4 µM (active)
30 | NC(=O)Nc1cc(-c2cccc(F)c2)sc1C(=O)N[C@H]1CCCNC1 [AZD-7762] | 0.9 µM (active)
31 | O=C(Nc1nc2ccc(NC(=O)C34CC5CC(CC(C5)C3)C4)cc2s1)c1ccccc1 | 15 µM (inactive)
32 | Cc1cccc(C(=O)Nc2nc(-c3nccn3C)cs2)c1 | 4.7 µM (active)
33 | CC1CCC(C(C)C)C(OC(=O)Cn2c(-c3ccc(Br)cc3)[n+](C)c3ccccc32)C1 (stereo not drawn) | 4.7 µM (active)
34 | CN1CCCC(CNc2ccc3cc(Cl)ccc3n2)C1 (stereo not drawn) | 7.9 µM (active)
35 | CS(=O)(=O)N1CCc2ccc(NC(=O)Nc3cccc(Cl)c3)cc21 | 1.3 µM (active)
36 | O=C(c1ccc(F)c(F)c1Nc1ccc(I)cc1F)N1CC(O)(C2CCCCN2)C1 (racemic) | < 0.1 µM (active)
37 | CCN(c1nc(N)c(C(=O)NC(=N)N)nc1Cl)C(C)C | 12.5 µM (active)
38 | Cc1ccc([C@H](C)N(C)C(=O)Nc2cc(C(C)C)n[nH]2)cc1 | 5 µM (active)
39 | CC(C)c1cc2c(N3CCN(C4=NCC(C)(C)S4)CC3)ncnc2s1 | 10 µM (active)
40 | Cc1ccc(S(=O)(=O)c2cn(C)c3cc(N4CCN(C)CC4)c(F)cc3c2=O)cc1 | 15.1 µM (inactive)
41 | Clc1nss/c1=N\c1ccc(Br)cc1 | 24.2 µM (inactive)
42 | CC(C)CCNC(=O)COc1ccc(-c2nc(C(C)C)no2)cc1 | 3.2 µM (active)
43 | COc1ccc(-c2csc3[nH]c(=O)cc(O)c23)cc1 | 3.7 µM (active)
44 | COc1cc2c(NC3CCN(C(C)C)CC3)nc(C3CCCCC3)nc2cc1OCCCN1CCCC1 | 2.4 µM (active)

Row | Compound | CC50
45 | CCN(C)C[C@H]1CCN(CCCC2CCCCC2)C1 | 4.5 µM (active)
46 | O=C(Nc1ccc2[nH]nc(-c3ccncc3)c2c1)[C@@H]1CCN(CC(=O)N2CCN(c3ccc(-c4ncccn4)cc3)CC2)C1 | 0.1 µM (active)
47 | COc1ccc(C)cc1CN(C)C(=O)CCn1c(=O)[nH]c(=O)c2ccccc21 | 0.2 µM (active)
48 | CCn1c(-c2nonc2N)nc2cnc(Oc3cccc(NC(=O)c4ccc(OCCN5CCOCC5)cc4)c3)cc21 [GSK-269962A] | 3 µM (active)
49 | Nc1ccnc2ccc(Oc3ccccc3)cc12 | 11.2 µM (active)
50 | Cc1ccc(-c2noc(-c3cccc(OCC(=O)N4CCN(C)CC4)c3)n2)cc1 | 6.3 µM (active)
51 | CC(=O)c1ccc(-c2ccc(C(=O)Nc3ncc(C)o3)o2)cc1 | 4.2 µM (active)
52 | Cc1ccccc1Oc1ccnc(CNC(=O)c2nccn2C)c1 | 1.1 µM (active)
53 | Cc1cc(NCCCN2CCC(C)CC2)c2ccccc2n1 | 6.5 µM (active)
54 | Nc1nc2nn[nH]c2c(=O)[nH]1 [8-AZAGUANINE] | 7.5 µM (active)
55 | COc1cc2ncnc(Nc3ccc(F)c(Cl)c3)c2cc1NC(=O)/C=C/CN1CCCCC1 [DACOMITINIB ANHYDROUS] | 6.5 µM (active)
56 | CCC(C)(C)C(=O)O[C@H]1C[C@@H](C)C=C2C=C[C@H](C)[C@H](CC[C@@H]3C[C@@H](O)CC(=O)O3)[C@H]21 [SIMVASTATIN] | 17.1 µM (inactive)
57 | COC[C@H](NC(=O)c1cnc(C)s1)C(=O)N[C@@H](COC)C(=O)N[C@@H](Cc1ccccc1)C(=O)[C@@]1(C)CO1 [OPROZOMIB] | 0.1 µM (active)
58 | CNc1ncc2cc(-c3ccc(-c4cccc(C)n4)cc3Cl)c(=O)n(C[C@H]3OC[C@H](N)CO3)c2n1 | 4.5 µM (active)
59 | CC(C)C[C@@H](C=O)NC(=O)[C@H](CC(C)C)NC(=O)[C@H](CC(C)C)NC(=O)OCc1ccccc1 [MG-132] (Cbz-Leu-Leu-Leu-aldehyde) | 0.5 µM (active)
60 | CCc1ccc(S(=O)(=O)N2CCN(c3cc(-n4ccc(C)n4)ncn3)CC2)cc1 | 6.7 µM (active)
61 | C#CCNC(=O)c1ccccc1NCc1ccc(C#N)cc1OC | 1 µM (active)
62 | O=C(Cc1cccc(F)c1)Nc1cccc2ncccc12 | 14.5 µM (inactive)
63 | CCOc1cc(N2CCC(O)CC2)ccc1Nc1ncc2c(n1)N(C1CCCC1)CCC(=O)N2C | 4.3 µM (active)
64 | Cc1cccc(C(=O)Nc2ccc(C(=O)Nc3cccnc3)cc2)n1 | 5.8 µM (active)
65 | Cn1nc(-c2ccc(C(F)(F)F)cc2)nc2c(=O)n(C)c(=O)nc1-2 | 1.1 µM (active)
66 | N#Cc1ccc(COC[C@H]2O[C@@H](n3c(NCc4ccc(Cl)c(Cl)c4)nc4c(N)ncnc43)[C@H](O)[C@@H]2O)cc1 | 3 µM (active)

Row | Compound | CC50
67 | CN(C)C(=O)CO[C@@H]1COCC[C@H]1NC(=O)c1cn(C)c2ccccc12 | 6.3 µM (active)
68 | O=C(Nc1nc2cccc(-c3ccc(CN4CCS(=O)(=O)CC4)cc3)n2n1)C1CC1 [FILGOTINIB] | 6.4 µM (active)
69 | OC(CN1CCC(Cc2ccc(F)cc2)CC1)c1ccc(Cl)cc1 (stereo not drawn) [ELIPRODIL] | 50 µM (inactive)
70 | COc1cc(/C=C2\CCCN([C@@H](C)c3ccc(F)cc3)C2=O)ccc1-n1cnc(C)c1 | 12.8 µM (active)
71 | COc1ccc(C)cc1NC(=O)N1CCC(n2cnc3cc(F)ccc3c2=O)CC1 | 9.9 µM (active)
72 | Cc1ccc(S(=O)(=O)/N=C2\C=C(Sc3nc[nH]n3)C(=O)c3ccccc32)cc1 | 4.8 µM (active)
73 | CN1CCCN(C(=O)c2cccc(-c3ccc(/C=C4/C(=O)Nc5ccc(Cl)cc54)o3)c2)CC1 | 0.6 µM (active)
74 | Clc1ccc(C2=CCNCC2)cc1Cl | 10.8 µM (active)
75 | Nc1ncc(-c2ccnc(Nc3ccncc3)n2)c(CC2CC2)n1 | 7 µM (active)
76 | CCCCc1c(C)[nH]n(-c2nc3ccccc3[nH]2)c1=O | 8.9 µM (active)
77 | NC(=O)C(c1ccccc1)(c1ccccc1)[C@@H]1CCN(CCc2ccc3c(c2)CCO3)C1 [DARIFENACIN HYDROBROMIDE] | 11.1 µM (active)
78 | CCC(C)NC(=O)N1CC(Oc2ccc(-c3noc(C4CCOCC4)n3)cc2)C1 (stereo not drawn) | 4.8 µM (active)
79 | C=CC(=O)N1CCC(Oc2cc3c(Nc4ccc(Cl)c(Cl)c4F)ncnc3cc2OC)CC1 [POZIOTINIB] | 18.7 µM (inactive)
80 | CCN1CCN(c2cc3c(cc2S(=O)(=O)N2CCCCCC2)C(=O)Nc2ccccc2O3)CC1 | 10.9 µM (active)
81 | Cc1cc(Br)cc(C)c1OCCCCN(C)C | 9.8 µM (active)
82 | COc1ccccc1OCC(=O)Nc1cccc2ncccc12 | 9.3 µM (active)
83 | O=C1c2ccccc2-n2c1nc1ccccc1c2=O [TRYPTANTHRIN] | 4.3 µM (active)
84 | CCCN(CCC)C(=O)C1=Cc2ccc(-c3ccc(C(=O)N4CCCC4)cc3)cc2N=C(N)C1 [MOTOLIMOD] | 11.3 µM (active)
85 | Cc1cn2c(=O)c(S(=O)(=O)NCC3CCN(Cc4ccc(Cl)cc4)CC3)c(C)nc2s1 | 11.9 µM (active)
86 | Fc1ccc(C(OCCN2CCN(CCCc3ccccc3)CC2)c2ccc(F)cc2)cc1 | 5.7 µM (active)
87 | Cc1occc1C(=O)Nc1ccc(N2CCCC2)cn1 | 8.8 µM (active)
88 | C=CC(=O)Nc1ccc(CN2C(=O)N(c3cc(OC)cc(OC)c3)Cc3cnc(Nc4ccc(N5CCN(C)CC5)cc4)nc32)cc1 | 3.7 µM (active)
